Details: for surface tension liquid-gas: Maximal bubble pressure; for viscosity / mass density / electrical conductivity: 101.33 kPa, Liquid; for viscosity: Concentric cylinders viscometry; for mass density: Vibrating tube method; for electrical conductivity: Alternating current cell with electrodes

CCCCn1cc[n+](C)c1C.O=S(=O)([O-])O [1-butyl-2,3-dimethylimidazolium hydrogen sulfate]
Details | electrical conductivity [S/m] | mass density [kg/m3] | surface tension liquid-gas [mN/m] | viscosity [mPa·s]
288.15 K | – | 1217.09 | 45.3 | 628.5
293.15 K | – | 1213.74 | 45 | 469.7
298.15 K | 0.1 | 1210.61 | 44.8 | 355.2
303.15 K | 0.135 | 1207.35 | 44.5 | 271.3
308.15 K | 0.179 | 1203.89 | 44.2 | 206.3
313.15 K | 0.231 | 1200.63 | 43.9 | 157.2
318.15 K | 0.292 | 1197.49 | 43.7 | 121.8
323.15 K | 0.36 | 1194.03 | 43.4 | 95.86
328.15 K | 0.441 | 1190.8 | 43.1 | 74.49
333.15 K | 0.531 | 1187.57 | 42.8 | 60.7
338.15 K | 0.631 | 1184.29 | 42.6 | 46.52
343.15 K | 0.739 | 1180.99 | 42.3 | 38.13

CCCCn1cc[n+](C)c1.O=P([O-])(O)O [1-butyl-3-methylimidazolium dihydrogen phosphate]
Details | electrical conductivity [S/m] | mass density [kg/m3] | surface tension liquid-gas [mN/m] | viscosity [mPa·s]
288.15 K | 0.303 | 1183.24 | 44.2 | 198.7
293.15 K | 0.359 | 1179.91 | 43.9 | 159
298.15 K | 0.419 | 1176.54 | 43.6 | 125.6
303.15 K | 0.483 | 1173.18 | 43.2 | 101.1
308.15 K | 0.555 | 1169.69 | 42.9 | 80.78
313.15 K | 0.628 | 1166.3 | 42.6 | 65.21
318.15 K | 0.707 | 1162.8 | 42.3 | 53.62
323.15 K | 0.788 | 1159.53 | 42 | 43.67
328.15 K | 0.868 | 1156.13 | 41.7 | 36.75
333.15 K | 0.965 | 1152.67 | 41.4 | 29.77
338.15 K | 1.06 | 1149.36 | 41.1 | 25.21
343.15 K | 1.16 | 1146.03 | 40.8 | 20.96

CCCCn1cc[n+](C)c1.O=C([O-])O [1-butyl-3-methylimidazolium hydrogen carbonate]
Details | electrical conductivity [S/m] | mass density [kg/m3] | surface tension liquid-gas [mN/m] | viscosity [mPa·s]
288.15 K | 0.274 | 1164.1 | 34.9 | 122.9
293.15 K | 0.322 | 1160.5 | 34.4 | 94.8
298.15 K | 0.376 | 1157.08 | 34 | 73.73
303.15 K | 0.439 | 1153.64 | 33.5 | 57.64
308.15 K | 0.496 | 1150 | 33.1 | 45.33
313.15 K | 0.557 | 1146.51 | 32.6 | 35.86
318.15 K | 0.622 | 1142.95 | 32.2 | 28.85
323.15 K | 0.689 | 1139.45 | 31.7 | 22.93
328.15 K | 0.755 | 1136.1 | 31.2 | 18.54
333.15 K | 0.823 | 1132.53 | 30.8 | 14.81
338.15 K | 0.893 | 1128.92 | 30.4 | 11.88
343.15 K | 0.963 | 1125.52 | 29.9 | 10.04

CCn1cc[n+](C)c1C.O=S(=O)([O-])O [1-ethyl-2,3-dimethylimidazolium hydrogen sulfate]
Details | electrical conductivity [S/m] | mass density [kg/m3] | surface tension liquid-gas [mN/m] | viscosity [mPa·s]
288.15 K | – | 1261.94 | 50.4 | 375
293.15 K | – | 1258.09 | 50.1 | 263.6
298.15 K | 0.15 | 1254.43 | 49.8 | 186
303.15 K | 0.193 | 1250.77 | 49.5 | 134.9
308.15 K | 0.244 | 1247.08 | 49.3 | 98.41
313.15 K | 0.308 | 1243.3 | 49 | 72.94
318.15 K | 0.377 | 1239.59 | 48.7 | 53.72
323.15 K | 0.458 | 1235.8 | 48.4 | 40.12
328.15 K | 0.554 | 1232.2 | 48.1 | 30.2
333.15 K | 0.665 | 1228.52 | 47.8 | 22.37
338.15 K | 0.787 | 1224.82 | 47.5 | 17.96
343.15 K | 0.925 | 1221.18 | 47.2 | 12.57

CCCCC[n+]1ccn(C)c1.O=P([O-])(O)O [1-methyl-3-pentylimidazolium dihydrogen phosphate]
Details | electrical conductivity [S/m] | mass density [kg/m3] | surface tension liquid-gas [mN/m] | viscosity [mPa·s]
288.15 K | 0.164 | 1148.62 | 41.8 | 327.8
293.15 K | 0.201 | 1145.42 | 41.5 | 259.1
298.15 K | 0.243 | 1142.29 | 41.2 | 205
303.15 K | 0.29 | 1139.09 | 40.9 | 162.6
308.15 K | 0.341 | 1135.81 | 40.6 | 130
313.15 K | 0.398 | 1132.55 | 40.3 | 103.3
318.15 K | 0.457 | 1129.43 | 40 | 84.04
323.15 K | 0.523 | 1126.27 | 39.7 | 68.45
328.15 K | 0.588 | 1122.94 | 39.3 | 56.55
333.15 K | 0.665 | 1119.93 | 39 | 46.91
338.15 K | 0.744 | 1116.63 | 38.7 | 38.55
343.15 K | 0.825 | 1113.49 | 38.4 | 31.43

CCC[n+]1ccn(C)c1.O=P([O-])(O)O [1-methyl-3-propylimidazolium dihydrogen phosphate]
Details | electrical conductivity [S/m] | mass density [kg/m3] | surface tension liquid-gas [mN/m] | viscosity [mPa·s]
288.15 K | 0.469 | 1202.41 | 46.4 | 99.38
293.15 K | 0.536 | 1198.96 | 46.1 | 78.41
298.15 K | 0.613 | 1195.45 | 45.8 | 61.92
303.15 K | 0.693 | 1191.95 | 45.5 | 49.58
308.15 K | 0.785 | 1188.45 | 45.2 | 39.3
313.15 K | 0.879 | 1184.95 | 44.9 | 32.16
318.15 K | 0.977 | 1181.43 | 44.6 | 25.81
323.15 K | 1.08 | 1177.89 | 44.3 | 21.02
328.15 K | 1.19 | 1174.36 | 44 | 17.17
333.15 K | 1.3 | 1170.8 | 43.7 | 13.85
338.15 K | 1.41 | 1167.24 | 43.4 | 11.43
343.15 K | 1.55 | 1163.66 | 43.1 | 10.04

CCCCCn1cc[n+](C)c1C.O=S(=O)([O-])O [2,3-dimethyl-1-pentylimidazolium hydrogen sulfate]
Details | electrical conductivity [S/m] | mass density [kg/m3] | surface tension liquid-gas [mN/m] | viscosity [mPa·s]
288.15 K | – | 1196.47 | 42.5 | 772.4
293.15 K | – | 1193.23 | 42.2 | 597
298.15 K | 0.075 | 1190.07 | 42 | 462.8
303.15 K | 0.105 | 1186.89 | 41.7 | 358.7
308.15 K | 0.145 | 1183.89 | 41.5 | 281.1
313.15 K | 0.197 | 1180.69 | 41.2 | 224.2
318.15 K | 0.257 | 1177.69 | 40.9 | 176
323.15 K | 0.324 | 1174.61 | 40.7 | 140.1
328.15 K | 0.399 | 1171.29 | 40.4 | 113
333.15 K | 0.485 | 1168.33 | 40.1 | 90
338.15 K | 0.573 | 1165.21 | 39.9 | 73.77
343.15 K | 0.675 | 1162.18 | 39.6 | 57.54

CCCn1cc[n+](C)c1C.O=S(=O)([O-])O [2,3-dimethyl-1-propylimidazolium hydrogen sulfate]
Details | electrical conductivity [S/m] | mass density [kg/m3] | surface tension liquid-gas [mN/m] | viscosity [mPa·s]
288.15 K | – | 1239.79 | 47.7 | 500.4
293.15 K | – | 1236.23 | 47.4 | 362.3
298.15 K | 0.123 | 1232.82 | 47.2 | 263.7
303.15 K | 0.162 | 1229.24 | 46.9 | 194.2
308.15 K | 0.211 | 1225.73 | 46.6 | 142.2
313.15 K | 0.267 | 1222.13 | 46.3 | 107
318.15 K | 0.333 | 1218.82 | 46.1 | 81.27
323.15 K | 0.409 | 1215.29 | 45.8 | 62.04
328.15 K | 0.496 | 1211.74 | 45.5 | 47.83
333.15 K | 0.6 | 1208.35 | 45.2 | 35.71
338.15 K | 0.711 | 1204.81 | 44.9 | 27.47
343.15 K | 0.832 | 1201.46 | 44.7 | 21.17

CCCCCn1cc[n+](C)c1.O=C([O-])O [3-methyl-1-pentylimidazolium hydrogen carbonate]
Details | electrical conductivity [S/m] | mass density [kg/m3] | surface tension liquid-gas [mN/m] | viscosity [mPa·s]
288.15 K | 0.143 | 1148.91 | 31.9 | 179.6
293.15 K | 0.193 | 1145.21 | 31.4 | 138.9
298.15 K | 0.248 | 1141.79 | 30.9 | 108.6
303.15 K | 0.305 | 1138.28 | 30.4 | 85.09
308.15 K | 0.367 | 1134.77 | 29.9 | 66.77
313.15 K | 0.428 | 1131.33 | 29.4 | 53.12
318.15 K | 0.489 | 1127.75 | 29 | 42.53
323.15 K | 0.553 | 1124.28 | 28.5 | 33.29
328.15 K | 0.612 | 1120.73 | 28 | 26.92
333.15 K | 0.671 | 1117.27 | 27.5 | 21.42
338.15 K | 0.733 | 1113.75 | 26.9 | 17.65
343.15 K | 0.794 | 1110.3 | 26.5 | 14.71

Source: the NIST ThermoML archive (doi:10.1021/acs.jced.5b00860)
